Measurements taken from patent US6747057B2 (priority 2001, dated 2004).

Legend:
[1] = tested on: GSK-3; format: biochemical; conditions: read-out: IC50 GSK-3 inhibition
[2] = tested on: Tau phosphorylation in primary cultured cerebellar neurones; assay: cells; format: cell-based; conditions: Rattus norvegicus, 16 h, read-out: IC50 Tau phosphorylation inhibition in neurones measured by Tau-1 immunoreactivity

Row | SMILES | IC50 [1] [nM] | IC50 [2] [µM] | melting point [°C]
1 | O=C(CCl)c1c(Br)sc(Cl)c1Cl [Compound 1, 1-(2-Bromo-4,5-dichloro-thiophen-3-yl)-2-chloro-ethanone] | 2000 | 30 | –
2 | O=C(CCl)c1cc(Cl)c(Cl)s1 [Compound 2, 2-Chloro-1-(4,5-dichloro-thiophen-2-yl)-ethanone] | 2500 | – | –
3 | O=C(CCl)c1cc(Br)cs1 [Compound 3, 1-(4-Bromo-thiophen-2-yl)-2-chloro-ethanone] | 3000 | – | –
4 | O=C(CCl)c1cscc1Cl [Compound 4, 2-Chloro-1-(4-chloro-thiophen-3-yl)-ethanone] | 25000 | – | –
5 | O=C(CCl)c1c(Br)sc(Br)c1Br [Compound 5, 2-Chloro-1-(2 4,5-tribromo-thiophen-3-yl) -ethanone] | 1000 | 30 | –
6 | O=C(CCl)c1cc(Cl)sc1Cl [Compound 6, 2-Chloro-1-(2,5-dichloro-thiophen-3-yl)-ethanone] | 5000 | – | 43 to 44
7 | O=C(CCl)c1ccc(Br)s1 [Compound 8, 1-(5-Bromo-thiophen-2-yl)-2-chloro-ethanone] | 10000 | – | –
8 | O=C(CCl)c1csc(C(=O)CCl)c1 [Compound 9, 2-Chloro-1-[4-(2-chloro-acetyl)-thiophen-2-yl]-ethanone] | 1500 | – | 154 to 155
9 | O=C(CCl)c1cccs1 [Compound 10, 2-Chloro-1-thiophen-2-yl-ethanone] | 50000 | – | –
10 | Cc1sc(C(=O)CCl)cc1C(=O)CCl [Compound 11, 2-Chloro-1-[4-(2-chloro-acetyl)-5-methyl-thiophen-2-yl]-ethanone] | 5000 | – | –
11 | O=C(CCl)c1cc(Br)c(Br)s1 [Compound 14, 2-Chloro-1-(4,5-dibromo-thiophen-2-yl)-ethanone] | 1000 | – | –
12 | O=C(CCl)c1scc(Br)c1Br [Compound 15, 2-Chloro-1-(3,4-dibromo-thiophen-2-yl)-ethanone] | 500 | – | 86 to 88
13 | Cc1c(C(=O)CCl)csc1C(=O)CCl [Compound 16, 2-Chloro-1-[5-(2-chloro-acetyl)-4-methyl-thiophen-3-yl]-ethanone] | 2500 | – | 155 to 156
14 | Cc1ccsc1C(=O)CCl [Compound 18, 2-chloro-1-(3-methyl-thiophen-2-yl)-ethanone] | 75000 | – | –
15 | CC(=O)c1ccc(C(=O)CCl)s1 [Compound 19, 1-(5-Acetyl-thiophen-2-yl)-2-chloro-ethanone] | 50000 | – | –
16 | CC(=O)c1csc(C(=O)CCl)c1 [Compound 20, 1-(4-Acetyl-thiophen-2-yl)-2-chloro-ethanone] | 8000 | – | 118 to 119

Row | SMILES | IC50 [1] [nM] | IC50 [2] [µM] | melting point [°C]
17 | O=C(CBr)c1scc(Br)c1Br [Compound 21, 2-Bromo-1-(3,4-dibromo-thiophen-2-yl)-ethanone] | 1000 | – | –
18 | O=C(CBr)c1cc(Br)c(Br)s1 [Compound 22, 2-Bromo-1-(4,5-dibromo-thiophen-2-yl)-ethanone] | 1000 | – | –
19 | O=C(CBr)c1ccc(Br)s1 [Compound 23, 2-Bromo-1-(5-bromo-thiophen-2-yl)-ethanone] | 1000 | – | –
20 | O=C(CCl)c1ccc(Cl)cc1 [Compound 24, 2-Chloro-1-(4-chloro-phenyl)-ethanone] | 2500 | – | –
21 | O=C(CCl)c1ccccc1 [Compound 25, 2-Chloro-1-phenyl-ethanone] | 50000 | – | –
22 | O=C(CBr)c1ccc(Br)c(Br)c1 [Compound 27, 2-Bromo-1-(3,4-dibromo-phenyl)-ethanone] | 750 | – | 60 to 61
23 | O=C(CBr)c1ccc(Br)cc1 [Compound 28, 2-Bromo-1-(4-bromo-phenyl)-ethanone] | 500 | – | –
24 | O=C(CBr)c1ccccc1 [Compound 30, 2-Bromo-1-phenyl-ethanone] | 5000 | – | –
25 | O=C(CBr)c1ccc(-c2ccccc2)cc1 [Compound 33, 1-Biphenyl-4-yl-2-bromo-ethanone] | 2500 | – | –
26 | N#Cc1ccc(C(=O)C(Br)Br)cc1 [Compound 39, 4-(2,2-Dibromo-acetyl)-benzonitrile] | 1500 | – | –
27 | O=C(CBr)c1ccc(C(F)(F)F)cc1 [Compound 40, 2-Bromo-1-(4-trifluoromethyl-phenyl)-ethanone] | 5000 | – | –
28 | O=C(c1ccc(C(F)(F)F)cc1)C(Br)Br [Compound 41, 2,2-Dibromo-1-(4-trifluoromethyl-phenyl)-ethanone] | 5000 | – | 40 to 41
29 | O=C(CBr)c1ccc(N2CCOCC2)cc1 [Compound 42, 2-Bromo-1-(4-morpholin-4-yl-phenyl)-ethanone] | 6000 | – | –
30 | N#Cc1cccc(C(=O)C(Br)Br)c1 [Compound 44, 3-(2,2-Dibromo-acetyl)-benzonitrile] | 1000 | – | –
31 | O=C(c1ccc(I)cc1)C(Br)Br [Compound 45, 2,2 -Dibromo-1-(4-iodo-phenyl)-ethanone] | 2000 | – | 77 to 78
32 | Nc1c(Br)cc(C(=O)CBr)cc1Br [Compound 47, 1-(4-Amino-3,5-dibromo-phenyl)-2-bromo-ethanone] | 3000 | – | 146 to 147
